Article PMC7699847, “Acylated Aminooligosaccharides from the Yellow Sea Streptomyces sp. HO1518 as Both α-Glucosidase and Lipase Inhibitors” (Marine Drugs, 2020)
Values joined by “and” are separate entries in the source; they are usually repeats but may differ in a detail not shown here. Equal entries are not always repeated. Where two headings read alike, the source gives them in different places.

What was measured:
sucrase = assay: Sucrase inhibition assay; assay type: biochemical; details: mean ± SD; triplicate; sucrose substrate, 37 °C; read-out: IC50 Values (μM) Against Sucrase
Procedure: 3.5.2. Sucrase Inhibition Assay
The sucrase inhibition assay was performed according to the method outlined by Honda et al. with some modifications. In brief, 10 µL of enzyme solution (100 U/mL) and 30 µL of test sample solution with appropriate concentration (dissolved in distilled water) were added into the 96-well plates, and were incubated for 10 min at 37 °C. The reaction was conducted by addition of 100 µL of sucrose solution (60 mM, dissolved in 0.1 M phosphate buffer solution). Then, the mixture was added to 200 µL of 3,5-dinitrosalysilic acid, which was heated in boiling water for 5 min to stop the reaction. The absorbance of each tested compound was measured at 540 nm. The inhibition rates were calculated using the following equation. All experiments were measured in triplicate, and a logarithmic regression curve was established to calculate IC50 values. (1) Inhibition % = Acontrol - Asample/Acontrol × 100 where Acontrol represents the absorbance of the mixture of […], sucrose solution 3,5-dinitrosalysilic acid and enzyme solution; while the Asample is the absorbance of the mixture of phosphate buffer, sucrose solution 3,5-dinitrosalysilic acid and enzyme solution.

[1] = biological target: T1, porcine pancreatic α-amylase (PPA) (Sus scrofa, UniProt P00690); assay: Porcine pancreatic α-amylase (PPA) inhibition assay
T1 sequence (P00690 16-511): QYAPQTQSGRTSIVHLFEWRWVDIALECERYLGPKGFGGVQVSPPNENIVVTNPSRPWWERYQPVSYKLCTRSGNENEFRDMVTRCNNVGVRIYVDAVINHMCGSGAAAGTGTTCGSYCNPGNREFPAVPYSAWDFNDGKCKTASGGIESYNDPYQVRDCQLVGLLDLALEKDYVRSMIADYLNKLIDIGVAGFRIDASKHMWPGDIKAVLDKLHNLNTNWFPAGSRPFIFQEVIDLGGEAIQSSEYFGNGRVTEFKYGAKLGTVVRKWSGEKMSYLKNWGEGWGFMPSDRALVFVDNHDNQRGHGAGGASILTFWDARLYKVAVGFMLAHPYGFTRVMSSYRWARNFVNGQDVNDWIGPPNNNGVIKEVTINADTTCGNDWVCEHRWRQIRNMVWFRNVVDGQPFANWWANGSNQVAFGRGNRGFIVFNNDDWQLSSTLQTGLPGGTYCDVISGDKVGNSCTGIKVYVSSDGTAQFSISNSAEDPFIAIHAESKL

pancreatic lipase (PL) = biological target: T2, pancreatic lipase (PL) (Sus scrofa, UniProt P00591); assay: Pancreatic lipase (PL) inhibition assay (pNP laurate method); assay type: biochemical; details: mean ± SD; triplicate; pNP laurate substrate, 30 min at 37 °C, Tris buffer pH 8.2; read-out: IC50 Values (μM) Against PL
T2 construct: purchased Sigma Aldrich Co. (St Louis, MO, USA)
T2 sequence (P00591 1-450): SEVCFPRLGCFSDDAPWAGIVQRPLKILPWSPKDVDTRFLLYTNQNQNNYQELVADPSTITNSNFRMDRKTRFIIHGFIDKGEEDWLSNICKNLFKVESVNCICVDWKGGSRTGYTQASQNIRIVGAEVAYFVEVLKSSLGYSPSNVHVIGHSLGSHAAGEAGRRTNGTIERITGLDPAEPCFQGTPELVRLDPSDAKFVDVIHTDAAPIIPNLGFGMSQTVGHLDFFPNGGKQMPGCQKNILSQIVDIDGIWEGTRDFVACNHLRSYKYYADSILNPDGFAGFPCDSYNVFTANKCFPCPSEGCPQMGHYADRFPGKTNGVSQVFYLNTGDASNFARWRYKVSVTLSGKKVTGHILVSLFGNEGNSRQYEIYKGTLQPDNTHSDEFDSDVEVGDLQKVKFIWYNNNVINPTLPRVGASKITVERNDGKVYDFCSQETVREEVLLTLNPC
Procedure: 3.6. Pancreatic Lipase (PL) Inhibition Assay
This assay was carried out using p-nitrophenyl laurate (pNP laurate) method with slight modification. In detail, 150 µL lipase solution (10 mg/mL, dissolved in the 0.1 M Tris buffer) was mixed with 50 µL tested sample solution (inhibitors) in a 1.5 mL centrifuge tube, then 350 µL 0.1 M Tris buffer (pH = 8.2) was added and pre-incubated. After the addition of 450 µL pNP laurate (substrate), the reaction was incubated for 30 min at 37 °C. The mixtures were heated in boiling water for 5 min to terminate the reaction. After cooling to RT, the tube was centrifuged at 12,000 rpm for 3 min. A portion of 100 µL of mixture was added into a 96-well plate, which was measured at 405 nm. The percentage of inhibitory activities was calculated using the formula below. All data were performed in triplicate, and a logarithmic regression curve was established to calculate IC50 values. (2) Inhibition% = [1 - (Asample - Ablank/Atest - Acontrol)] × 100 where Asample is the absorbance of the mixture of sample solution, pNP solution and enzyme solution; Ablank is the absorbance of the mixture of sample solution and pNP solution without enzyme; Atest is the absorbance of the mixture of Tris buffer, pNP solution and enzyme solution; Acontrol is the absorbance of the mixture of Tris buffer and pNP solution without enzyme.

[2] = biological target: T1, porcine pancreatic α-amylase (PPA); design: purchased Sigma Aldrich Co. (St Louis, MO, USA); method as in PMID 30360574; details: earlier study of the same authors; cited from earlier work

`CC(C)C(=O)OCC1OC(OC2C(CO)OC(OC3C(CO)OC(OC4C(CO)OC(O)C(O)C4O)C(O)C3O)C(O)C2O)C(O)C(O)C1OC1OC(C)C(NC2C=C(CO)C(O)C(O)C2O)C(O)C1O` (centres unmarked) [Compound 1] gave an IC50 (sucrase) of 5.5 ± 0.09 µM, an IC50 [1] of 0.22 ± 0.04 µM and an IC50 (pancreatic lipase (PL)) of 2.16 ± 0.6 µM.

In the case of `C[C@H]1O[C@H](O[C@H]2[C@H](O)[C@@H](O)[C@@H](O[C@H]3[C@H](O)[C@@H](O)C(O)O[C@@H]3CO)O[C@@H]2CO)[C@H](O)[C@@H](O)[C@@H]1N[C@H]1C=C(CO)[C@@H](O)[C@H](O)[C@H]1O` (some centres unmarked) [acarbose, reference compound], the IC50 (sucrase) is reported as 11.3 ± 0.2 µM and the IC50 (pancreatic lipase (PL)) is reported as > 200 µM and 208 µM.

Work on `CC(O)CC(=O)OC[C@H]1O[C@H](O[C@H]2[C@H](O)[C@@H](O)[C@@H](O[C@H]3[C@H](O)[C@@H](O)[C@@H](O[C@H]4[C@H](O)[C@@H](O)C(O)O[C@@H]4CO)O[C@@H]3CO)O[C@@H]2CO)[C@H](O)[C@@H](O)[C@@H]1O[C@H]1O[C@H](C)[C@@H](N[C@H]2C=C(CO)[C@@H](O)[C@H](O)[C@H]2O)[C@H](O)[C@H]1O` (stereo partly drawn) [Compound 7, D6-O-β-hydroxybutyryl-acarviostatin I03] yielded an IC50 (sucrase) of 3.68 ± 0.13 µM and an IC50 (pancreatic lipase (PL)) of 8.1 ± 0.6 µM.

In the case of `CC(C)CC(=O)OC[C@H]1O[C@H](O[C@H]2[C@H](O)[C@@H](O)[C@@H](O[C@H]3[C@H](O)[C@@H](O)[C@@H](O[C@H]4[C@H](O)[C@@H](O)C(O)O[C@@H]4CO)O[C@@H]3CO)O[C@@H]2CO)[C@H](O)[C@@H](O)[C@@H]1O[C@H]1O[C@H](C)[C@@H](N[C@H]2C=C(CO)[C@@H](O)[C@H](O)[C@H]2O)[C@H](O)[C@H]1O` (some centres unmarked) [Compound 4, isovalertatin M03], the IC50 (sucrase) is reported as 9.34 ± 0.12 µM, the IC50 [1] is reported as 0.34 ± 0.07 µM and the IC50 (pancreatic lipase (PL)) is reported as 3.2 ± 0.1 µM.

In the case of `CCC(=O)OC[C@H]1O[C@H](O[C@H]2[C@H](O)[C@@H](O)[C@@H](O[C@H]3[C@H](O)[C@@H](O)[C@@H](O[C@H]4[C@H](O)[C@@H](O)C(O)O[C@@H]4CO)O[C@@H]3CO)O[C@@H]2CO)[C@H](O)[C@@H](O)[C@@H]1O[C@H]1O[C@H](C)[C@@H](N[C@H]2C=C(CO)[C@@H](O)[C@H](O)[C@H]2O)[C@H](O)[C@H]1O` (some centres unmarked) [Compound 6, D6-O-propionyl-acarviostatin I03], the IC50 (sucrase) is reported as 2.36 ± 0.12 µM and the IC50 (pancreatic lipase (PL)) is reported as 15.9 ± 0.6 µM.

For `CC(=O)OC[C@H]1O[C@H](O[C@H]2[C@H](O)[C@@H](O)[C@@H](O[C@H]3[C@H](O)[C@@H](O)[C@@H](O[C@H]4[C@H](O)[C@@H](O)C(O)O[C@@H]4CO)O[C@@H]3CO)O[C@@H]2CO)[C@H](O)[C@@H](O)[C@@H]1O[C@H]1O[C@H](C)[C@@H](N[C@H]2C=C(CO)[C@@H](O)[C@H](O)[C@H]2O)[C@H](O)[C@H]1O` (some centres unmarked) [Compound 5, D6-O-acetyl-acarviostatin I03], the IC50 (sucrase) was 2.98 ± 0.1 µM and the IC50 (pancreatic lipase (PL)) was 19.7 ± 1 µM.

With `CCC(C)C(=O)OCC1OC(OC2C(CO)OC(OC3C(CO)OC(OC4C(CO)OC(O)C(O)C4O)C(O)C3O)C(O)C2O)C(O)C(O)C1OC1OC(C)C(NC2C=C(CO)C(O)C(O)C2O)C(O)C1O` (centres unmarked) [Compound 2, D6-O-2-methyl-butyryl-acarviostatin I03] the IC50 (sucrase) was 3.12 ± 0.1 µM, the IC50 [1] was 0.15 ± 0.01 µM and the IC50 (pancreatic lipase (PL)) was 4.92 ± 0.2 µM.

Work on `CC(C)C(=O)OCC1OC(OC2C(CO)OC(OC3C(CO)OC(OC4C(CO)OC(O)C(O)C4O)C(O)C3O)C(O)C2O)C(O)C(O)C1OC1OC(C)C(NC2C=C(CO)C(OC3OC(CO)C(OC4OC(C)C(NC5C=C(CO)C(O)C(O)C5O)C(O)C4O)C(O)C3O)C(O)C2O)C(O)C1O` (centres unmarked) [Compound 3] yielded an IC50 (sucrase) of 1.45 ± 0.07 µM, an IC50 ([1]; read-out: IC50 Values (μM) Against PPA, mean ± SD, acarbose as positive control) of 0.04 ± 0.01 µM and an IC50 (pancreatic lipase (PL)) of 0.82 ± 0.08 µM.

In the case of `CC(=O)OC[C@H]1O[C@H](O[C@H]2[C@H](O)[C@@H](O)[C@@H](O[C@H]3[C@H](O)[C@@H](O)[C@@H](O[C@H]4[C@H](O)[C@@H](O)C(O)O[C@@H]4CO)O[C@@H]3CO)O[C@@H]2CO)[C@H](O)[C@@H](O)[C@@H]1O[C@H]1O[C@H](C)[C@@H](N[C@H]2C=C(CO)[C@@H](O[C@H]3O[C@H](CO)[C@@H](O[C@H]4O[C@H](C)[C@@H](N[C@H]5C=C(CO)[C@@H](O)[C@H](O)[C@H]5O)[C@H](O)[C@H]4O)[C@H](O)[C@H]3O)[C@H](O)[C@H]2O)[C@H](O)[C@H]1O` (some centres unmarked) [Compound 8, D6-O-acetyl-acarviostatin II03], the IC50 (sucrase) is given as 0.41 ± 0.05 µM, the “α-amylase IC50, fold stronger than acarbose” value [2] is given as 540 fold and the IC50 (pancreatic lipase (PL)) is given as 2 ± 0.18 µM.
